Measurements published in patent publication US20010036948A1 (priority 1998, published 2001).
Several values for one entry are separate records, joined by “and”; a condition that tells them apart may be missing. Identical values can stand only once.

Columns and labels:
[1] = tested on: T/G Human Aortic Smooth Muscle Cells; format: cell-based; as to Growth score: key: −: Lethal treatment, no cells left viable, all rounded, shriveled and dead; −/+: Some treated cells remain viable, about equal amount of clearly dead cells; +/−: Most cells remain viable, detectable number of dead cells; 1+: All cells appear viable, same density as when treated; 2+: Minimal proliferation, compared to control; 3+: Moderate proliferation compared to control; 4+: Maximal growth, unaffected by treatment
[2] = tested on: T/G HA-VSMC cells (human aortic smooth muscle cell system); format: cell-based
Vero cells = format: cell-based, monkey

| Compound | Growth score [1] | Effect on the increase in the number of cultured cells [2] | Effect on the increase in the number of cultured cells [1] | Effect on the increase in the number of cultured cells (Vero cells) |
| --- | --- | --- | --- | --- |
| NC(Cc1ccc(N(CCCl)CCCl)cc1)C(=O)O (centres unmarked) [Melphalan, melphalan, reference compound] | 2+ and 1+ and 3+ and 4+ | – | – | – |
| O=C(CCNc1c2ccccc2nc2ccccc12)OCCN(CCCl)CCCl [β-alanine, N-(acridin-9-yl), 2-[bis(2-chloroethyl)amino]ethyl ester] | −/+ and 1+ and +/− and 3+ and 4+ | inhibited the increase in the number | inhibited the increase in the number of cultured Human Aortic Smooth Muscle Cells in a dose-dependent manner with a relatively broad therapeutic window | inhibited the increase in the number |
